Test systems include UO-31; K562; OVCAR-8; HL-60; M14; SR; ACHN; SK-MEL-28; Hs-578T; OVCAR-3; HT-29; DMS-114; OVCAR-5; A498; SF-295; SF-539; SNB-19; UACC-257; MCF7; PC-3.
Common to all, as to experiment: NCI anticancer screen, dose series, 48 h

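Tested at 5 concentrations; 48 h exposure; 96-well plates; endpoints linearly interpolated, else capped at highest concentration. GI50 marks 50% less growth.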 The source made the active and inactive calls. No stated cut-off is given here; in the data, active = GI50 up to about 1.1 µM and inactive = higher. Bounds are passed on as bounds.

For the molecule `C=C(CN(C)C)C(=O)c1ccc(OC2OC(COC(C)=O)C(OC(C)=O)C(OC(C)=O)C2OC(C)=O)cc1` (centres undefined), the GI50 is 2.34 µM (inactive) in the assay with UO-31; 0.533 µM (active) with K562; 4.21 µM (inactive) with OVCAR-8; 0.456 µM (active) in the assay on HL-60; 2.4 µM (inactive) with M14; 0.975 µM (active) with SR. Moreover, the GI50 in the assay on ACHN was 1.62 µM (inactive); with SK-MEL-28, 2.52 µM (inactive); in the assay with Hs-578T it was 19.7 µM (inactive); in the assay on OVCAR-3 it was 2.25 µM (inactive); in the assay on HT-29 it was 2.75 µM (inactive); in the assay with DMS-114, 5.9 µM (inactive). The GI50 in the assay with OVCAR-5 was 16.5 µM (inactive); in the assay on A498 it was 14.1 µM (inactive); in the assay on SF-295, 21.3 µM (inactive); with SF-539, 10.1 µM (inactive); in the assay with SNB-19 it was 19.8 µM (inactive); in the assay with UACC-257, 2.34 µM (inactive). Further, the GI50 in the assay on MCF7 is 1.77 µM (inactive); in the assay on PC-3, 15.3 µM (inactive).

Take `Cc1ccccc1C(=O)Oc1ccc(OCc2ccccc2)cc1`: the GI50 in the assay on UO-31 was 37.2 µM (inactive); in the assay with K562, 47.6 µM (inactive); in the assay with OVCAR-8 it was > 100 µM (inactive); with HL-60, 5.82 µM (inactive); in the assay on M14, > 100 µM (inactive); in the assay with SR, 19.1 µM (inactive). Besides, the GI50 in the assay with ACHN was 9.18 µM (inactive); in the assay on SK-MEL-28, > 100 µM (inactive); with OVCAR-3 it was > 100 µM (inactive); in the assay on HT-29, 63.8 µM (inactive); with DMS-114, 28.9 µM (inactive); in the assay with OVCAR-5, 45.3 µM (inactive). Also, the GI50 was 34.5 µM (inactive) with A498; > 100 µM (inactive) with SF-295; > 100 µM (inactive) in the assay on SF-539; > 100 µM (inactive) in the assay on SNB-19; 95.7 µM (inactive) with UACC-257.

Consider `c1ccc(C2SCc3nc4ccccc4n32)cc1` (centres undefined), for which the GI50 with UO-31 was 24.6 µM (inactive); with K562 it was 32.8 µM (inactive); in the assay with OVCAR-8 it was 65 µM (inactive); in the assay on HL-60 it was 15.6 µM (inactive); in the assay with M14, 84.5 µM (inactive); in the assay with SR, 25.8 µM (inactive). The GI50 in the assay with ACHN is 59.3 µM (inactive); in the assay on SK-MEL-28, 40.3 µM (inactive); in the assay on OVCAR-3 it was 19.1 µM (inactive); in the assay with HT-29 it was 46 µM (inactive); in the assay on DMS-114 it was 19 µM (inactive); with OVCAR-5, > 100 µM (inactive). Moreover, the GI50 with A498 is 40.6 µM (inactive); in the assay on SF-295, 23 µM (inactive); in the assay on SF-539 it was 22.5 µM (inactive); in the assay with SNB-19, 32.2 µM (inactive); in the assay on UACC-257, 27.8 µM (inactive).

With `COc1ccc(/C=C2\CCC(CN3CCOCC3)C2=O)cc1` (centres undefined), the GI50 with UO-31 was 8.45 µM (inactive); in the assay on K562 it was 1.03 µM (active); in the assay with OVCAR-8, 2.74 µM (inactive); in the assay with HL-60 it was 0.762 µM (active); in the assay with M14 it was 2.16 µM (inactive); in the assay on SR, 1.46 µM (inactive). The GI50 with ACHN was 4.73 µM (inactive); in the assay with SK-MEL-28 it was 3.06 µM (inactive); in the assay on Hs-578T it was 3.04 µM (inactive); in the assay on OVCAR-3 it was 3.28 µM (inactive); in the assay on HT-29 it was 2.44 µM (inactive); in the assay on DMS-114, 2.72 µM (inactive). The GI50 was 9.06 µM (inactive) in the assay on OVCAR-5; 9.44 µM (inactive) in the assay on A498; 17.2 µM (inactive) in the assay with SF-295; 5.92 µM (inactive) with SF-539; 11.4 µM (inactive) in the assay on SNB-19; 2.37 µM (inactive) in the assay with UACC-257. Besides, the GI50 with MCF7 is 2.38 µM (inactive); in the assay on PC-3, 3.15 µM (inactive).

With `Oc1ccccc1/C=N/Cc1ccco1`, the GI50 in the assay on UO-31, in the assay on K562, in the assay with OVCAR-8, with HL-60, with M14 and with SR was > 100 µM (inactive) each time. The GI50 with ACHN, in the assay with SK-MEL-28, in the assay with OVCAR-3, in the assay with HT-29, in the assay with DMS-114 and in the assay with OVCAR-5 was > 100 µM (inactive) throughout. In addition, the GI50 with A498, in the assay on SF-295, with SF-539, in the assay on SNB-19 and with UACC-257 was > 100 µM (inactive) throughout.

As to `Clc1ccc(-c2c(C3=NCCN3)nnn2-c2ccccc2)cc1`, the GI50 in the assay with UO-31 is 82.4 µM (inactive); in the assay on K562, 61.1 µM (inactive); with OVCAR-8 it was > 100 µM (inactive); with HL-60, > 100 µM (inactive); in the assay with M14, > 100 µM (inactive); in the assay with SR, 49.2 µM (inactive). Besides, the GI50 is > 100 µM (inactive) with ACHN; > 100 µM (inactive) in the assay on SK-MEL-28; > 100 µM (inactive) with OVCAR-3; 68.7 µM (inactive) with HT-29; > 100 µM (inactive) with DMS-114; > 100 µM (inactive) in the assay on OVCAR-5. For the same molecule, the GI50 with A498, in the assay on SF-295, in the assay on SF-539, with SNB-19 and with UACC-257 was > 100 µM (inactive) in each case.

Regarding `CCOC(=O)C1=C(O)C(=O)c2ccoc2C1=O`, the GI50 in the assay on UO-31, in the assay on K562, with OVCAR-8, in the assay on HL-60, with M14 and in the assay with SR was > 100 µM (inactive) throughout. Also, the GI50 in the assay with ACHN, with SK-MEL-28, in the assay with OVCAR-3, with HT-29, with DMS-114 and with OVCAR-5 was > 100 µM (inactive) throughout. The GI50 in the assay with A498, with SF-295, with SF-539, in the assay on SNB-19 and in the assay on UACC-257 was > 100 µM (inactive) in each case.

On to `C[N+](C)(C)CC(=O)N/N=c1\cc(C(=O)Nc2ccc(N=O)cc2C#N)oc2cc(O)ccc12`, for which the GI50 in the assay with UO-31 was 72.3 µM (inactive); in the assay with K562, > 100 µM (inactive); in the assay on OVCAR-8 it was > 100 µM (inactive); in the assay on HL-60, > 100 µM (inactive); in the assay on M14, > 100 µM (inactive); with SR, > 100 µM (inactive). Moreover, the GI50 in the assay on ACHN, with SK-MEL-28, with OVCAR-3, in the assay with HT-29, in the assay on DMS-114 and in the assay on OVCAR-5 was > 100 µM (inactive) throughout. The GI50 in the assay with A498, with SF-295, in the assay with SF-539, in the assay on SNB-19 and with UACC-257 was > 100 µM (inactive) throughout.

On to `O=C(CC/C(CC(=O)c1ccc(Cl)cc1)=N/O)Nc1ccc(Cl)c(Cl)c1`, for which the GI50 in the assay on UO-31 is 98.4 µM (inactive); in the assay with K562, 50.4 µM (inactive); in the assay with OVCAR-8, > 100 µM (inactive); in the assay with HL-60, > 100 µM (inactive); with M14, > 100 µM (inactive); in the assay with SR, 89.5 µM (inactive). Further, the GI50 in the assay on ACHN was 31.8 µM (inactive); with SK-MEL-28 it was > 100 µM (inactive); in the assay on OVCAR-3, > 100 µM (inactive); in the assay with HT-29, > 100 µM (inactive); in the assay on DMS-114 it was 65.3 µM (inactive); in the assay on OVCAR-5 it was 24 µM (inactive). Also, the GI50 in the assay on A498, in the assay with SF-295, with SF-539, in the assay on SNB-19 and in the assay on UACC-257 was > 100 µM (inactive) throughout.

Regarding `Nc1ccc(S(=O)(=O)Nc2ccc(Nc3c4ccccc4nc4ccccc34)cc2)cc1`, the GI50 in the assay with UO-31 was 0.195 µM (active); in the assay with K562 it was 0.0716 µM (active); in the assay with OVCAR-8 it was 0.041 µM (active); with HL-60, < 0.0102 µM (active); in the assay with M14, 0.0298 µM (active); with SR, < 0.01 µM (active). Besides, the GI50 in the assay with ACHN was < 0.0114 µM (active); in the assay on SK-MEL-28, 0.738 µM (active); in the assay on Hs-578T, 1.86 µM (inactive); in the assay with OVCAR-3, 0.245 µM (active); in the assay on HT-29 it was 0.198 µM (active); in the assay with DMS-114, < 0.0102 µM (active). Besides, the GI50 in the assay on OVCAR-5 is 0.164 µM (active); with A498, 0.0538 µM (active); in the assay with SF-295, 0.0127 µM (active); in the assay with SF-539, 0.0166 µM (active); with SNB-19 it was 0.0182 µM (active); in the assay with UACC-257, 1.87 µM (inactive). For the same molecule, the GI50 with MCF7 was < 0.01 µM (active); in the assay on PC-3, 0.0555 µM (active).

The record behind these values is ChEMBL document CHEMBL1201862, “PubChem BioAssay data set” (2004).
